Experiments:
[1] = system: POAAN; experiment: Herbicidal post-emergence action 1b (twin sowing, 1280 g/ha); assay type: in vivo, Poa annua; conditions: dosage 1280 g/ha, visual rating about 3 weeks after treatment
Description: (§1) [table] b) Seeds of mono- and dicotyledonous weed plants are placed in plastic pots in sandy loam soil (twin sowing with one species each of mono- or dicotyledonous weed plants per pot), covered with soil and cultivated in a greenhouse under controlled growth conditions. 2 to 3 weeks after sowing, the test plants are treated at the one-leaf stage. The compounds of the invention, formulated in the form of wettable powders (WP) or as emulsion concentrates (EC), are applied to the green parts of the plants as aqueous suspension or emulsion with addition of 0.5% additive at a water application rate equivalent to 600 litres per hectare. After the test plants have been kept in the greenhouse under optimum growth conditions for about 3 weeks, the activity of the preparations is rated visually in comparison to untreated controls. For example, 100% activity=the plants have died, 0% activity=like control plants. Tables A16 to A21 below show the effects of selected compounds of the general formula (I) according to Tables 1 and 2 on various harmful plants and at an application rate corresponding to 1280 g/ha, which were obtained by the experimental procedure mentioned above.

[2] = system: ECHCG; experiment: as above; assay type: in vivo, Echinochloa crus-galli; conditions: dosage 1280 g/ha, visual rating about 3 weeks after treatment
Description: as §1

[3] = system: MATIN; experiment: as above; assay type: in vivo, Matricaria inodora; conditions: dosage 1280 g/ha, visual rating about 3 weeks after treatment
Description: as §1

[4] = system: POAAN; experiment: Herbicidal pre-emergence action 2b (doubly sown, 1280 g/ha); assay type: in vivo, Poa annua; conditions: doubly sown pots, dosage 1280 g/ha, visual scoring after about 3 weeks
Excerpt: (§2) [table] b) Seeds of mono- and dicotyledonous weed plants are placed in plastic pots in sandy loam soil (doubly sown with one species each of mono- or dicotyledonous weed plants per pot) and covered with soil. The compounds of the invention, formulated in the form of wettable powders (WP) or as emulsion concentrates (EC), are then applied onto the surface of the covering soil as aqueous suspension or emulsion with addition of 0.5% additive at a water application rate equivalent to 600 litres per hectare. After the treatment, the pots are placed in a greenhouse and kept under good growth conditions for the trial plants. After about 3 weeks, the effect of the preparations is scored visually in comparison with untreated controls as percentages. For example, 100% activity=the plants have died, 0% activity=like control plants. Tables B16 to B21 below show the effects of selected compounds of the general formula (I) according to Tables 1 and 2 on various harmful plants and at an application rate corresponding to 1280 g/ha, which were obtained by the experimental procedure mentioned above.

[5] = system: DIGSA; experiment: as above; assay type: in vivo, Digitaria sanguinalis; conditions: doubly sown pots, dosage 1280 g/ha, visual scoring after about 3 weeks
Excerpt: as §2

[6] = system: ECHCG; experiment: as above; assay type: in vivo, Echinochloa crus-galli; conditions: doubly sown pots, dosage 1280 g/ha, visual scoring after about 3 weeks
Excerpt: as §2

[7] = system: AMARE; experiment: as above; assay type: in vivo, Amaranthus retroflexus; conditions: doubly sown pots, dosage 1280 g/ha, visual scoring after about 3 weeks
Excerpt: as §2

[8] = system: STEME; experiment: as above; assay type: in vivo, Stellaria media; conditions: doubly sown pots, dosage 1280 g/ha, visual scoring after about 3 weeks
Excerpt: as §2

[9] = system: DIGSA; experiment: Herbicidal post-emergence action 1b (twin sowing, 1280 g/ha); assay type: in vivo, Digitaria sanguinalis; conditions: dosage 1280 g/ha, visual rating about 3 weeks after treatment
Description: as §1

[10] = system: ALOMY; experiment: Herbicidal post-emergence action 1a (greenhouse pots, visual rating); assay type: in vivo, Alopecurus myosuroides; conditions: rated visually about 3 weeks after treatment, 100% = plants have died, 0% = like control plants
Description: (§3) [table] a) Seeds of monocotyledonous and dicotyledonous weeds and crop plants are placed in sandy loam in plastic or organic plant pots, covered with soil and cultivated in a greenhouse under controlled growth conditions. 2 to 3 weeks after sowing, the test plants are treated at the one-leaf stage. The compounds of the invention, formulated in the form of wettable powders (WP) or as emulsion concentrates (EC), are then sprayed onto the green parts of the plants as aqueous suspension or emulsion with addition of 0.5% additive at a water application rate of 600 1/ha (converted). After the test plants have been kept in the greenhouse under optimum growth conditions for about 3 weeks, the activity of the preparations is rated visually in comparison to untreated controls. For example, 100% activity=the plants have died, 0% activity=like control plants. Tables A1 to A15 below show the effects of selected compounds of the general formula (I) according to Tables 1 and 2 on various harmful plants and an application rate corresponding to 320 g/ha and/or 80 g/ha, which were obtained by the experimental procedure mentioned above.

[11] = system: AVEFA; experiment: as above; assay type: in vivo, Avena fatua; conditions: Dosage 320 g/ha; rated visually about 3 weeks after treatment; 100% = plants have died, 0% = like control plants
Description: as §3

[12] = system: ECHCG; experiment: as above; assay type: in vivo, Echinochloa crus-galli; conditions: Dosage 320 g/ha; rated visually about 3 weeks after treatment; 100% = plants have died, 0% = like control plants
Description: as §3

[13] = system: LOLRI; experiment: as above; assay type: in vivo, Lolium rigidum; conditions: Dosage 320 g/ha; rated visually about 3 weeks after treatment; 100% = plants have died, 0% = like control plants
Description: as §3

[14] = system: SETVI; experiment: as above; assay type: in vivo, Setaria viridis; conditions: rated visually about 3 weeks after treatment, 100% = plants have died, 0% = like control plants
Description: as §3

[15] = system: ABUTH; experiment: as above; assay type: in vivo, Abutilon theophrasti; conditions: visual rating about 3 weeks after treatment
Description: as §3

[16] = system: AMARE; experiment: as above; assay type: in vivo, Amaranthus retroflexus; conditions: dosage 320 g/ha, visual rating about 3 weeks after treatment
Description: as §3

[17] = system: POLCO; experiment: as above; assay type: in vivo, Polygonum convolvulus; conditions: visual rating about 3 weeks after treatment
Description: as §3

[18] = system: VERPE; experiment: as above; assay type: in vivo, Veronica persica; conditions: visual rating about 3 weeks after treatment
Description: as §3

[19] = system: ALOMY; experiment: Herbicidal pre-emergence action 2a (greenhouse pots, visual scoring); assay type: in vivo, Alopecurus myosuroides; conditions: dosage 320 g/ha, visual scoring after about 3 weeks
Excerpt: (§4) [table] a) Seeds of monocotyledonous and dicotyledonous weed plants and crop plants are placed in plastic or organic plant pots and covered with soil. The compounds of the invention, formulated in the form of wettable powders (WP) or as emulsion concentrates (EC), are then applied onto the surface of the covering soil as aqueous suspension or emulsion with addition of 0.5% additive at a water application rate of 600 1/ha (converted). After the treatment, the pots are placed in a greenhouse and kept under good growth conditions for the trial plants. After about 3 weeks, the effect of the preparations is scored visually in comparison with untreated controls as percentages. For example, 100% activity=the plants have died, 0% activity=like control plants. Tables B1 to B15 below show the effects of selected compounds of the general formula (I) according to Tables 1 and 2 on various harmful plants and an application rate corresponding to 320 g/ha and/or 80 g/ha, which were obtained by the experimental procedure mentioned above.

[20] = system: AVEFA; experiment: as above; assay type: in vivo, Avena fatua; conditions: dosage 320 g/ha, visual scoring after about 3 weeks
Excerpt: as §4

[21] = system: ECHCG; experiment: as above; assay type: in vivo, Echinochloa crus-galli; conditions: dosage 320 g/ha, visual scoring after about 3 weeks
Excerpt: as §4

[22] = system: LOLRI; experiment: as above; assay type: in vivo, Lolium rigidum; conditions: dosage 320 g/ha, visual scoring after about 3 weeks vs untreated controls
Excerpt: as §4

[23] = system: SETVI; experiment: as above; assay type: in vivo, Setaria viridis; conditions: dosage 320 g/ha, visual scoring after about 3 weeks vs untreated controls
Excerpt: as §4

[24] = system: AMARE; experiment: as above; assay type: in vivo, Amaranthus retroflexus; conditions: dosage 320 g/ha, visual scoring after about 3 weeks vs untreated controls
Excerpt: as §4

[25] = system: MATIN; experiment: as above; assay type: in vivo, Matricaria inodora; conditions: dosage 320 g/ha, visual scoring after about 3 weeks vs untreated controls
Excerpt: as §4

[26] = system: POLCO; experiment: as above; assay type: in vivo, Polygonum convolvulus; conditions: dosage 320 g/ha, visual scoring after about 3 weeks vs untreated controls
Excerpt: as §4

[27] = system: VERPE; experiment: as above; assay type: in vivo, Veronica persica; conditions: dosage 320 g/ha, visual scoring after about 3 weeks vs untreated controls
Excerpt: as §4

[28] = system: MATIN; experiment: Herbicidal post-emergence action 1a (greenhouse pots, visual rating); assay type: in vivo, Matricaria inodora; conditions: dosage 320 g/ha, visual rating about 3 weeks after treatment
Description: as §3

[29] = system: PHBPU; experiment: as above; assay type: in vivo, Pharbitis purpurea; conditions: dosage 320 g/ha, visual rating about 3 weeks after treatment
Description: as §3

Compound	Post-emergence action at 1280 g/ha against POAAN in % [1] [%]	Pre-emergence action at 1280 g/ha against POAAN in % [4] [%]	Pre-emergence action at 1280 g/ha against DIGSA in % [5] [%]	Pre-emergence action at 1280 g/ha against AMARE in % [7] [%]	Pre-emergence action at 1280 g/ha against STEME in % [8] [%]	Post-emergence action against ALOMY in % ([10]; Dosage 320 g/ha) [%]	Post-emergence action against AVEFA in % [11] [%]	Post-emergence action against ECHCG in % [12] [%]	Post-emergence action against LOLRI in % [13] [%]	Post-emergence action against SETVI in % ([14]; Dosage 320 g/ha) [%]	Post-emergence action against ABUTH in % ([15]; dosage 320 g/ha) [%]	Post-emergence action against AMARE in % [16] [%]	Post-emergence action against POLCO in % ([17]; dosage 320 g/ha) [%]	Post-emergence action against VERPE in % ([18]; dosage 80 g/ha) [%]	Post-emergence action against VERPE in % ([18]; dosage 320 g/ha) [%]	Pre-emergence action against ECHCG in % [21] [%]	Pre-emergence action against LOLRI in % [22] [%]	Pre-emergence action against MATIN in % [25] [%]	also measured
COC(=O)[C@H](C)Oc1nn(-c2cnccn2)c(-c2ccc(F)nc2)c1C#N [Example I-26]	100	100	100	90	100	–	–	–	–	–	–	–	–	–	–	–	–	–	Post-emergence action at 1280 g/ha against ECHCG in % [2]: 100%; Post-emergence action at 1280 g/ha against MATIN in % [3]: 100%; Pre-emergence action at 1280 g/ha against ECHCG in % [6]: 100%
COC(=O)[C@@H](C)Oc1nn(-c2cnccn2)c(-c2ccnc(F)c2)c1C#N [Example I-35]	100	100	90	90	100	–	–	–	–	–	–	–	–	–	–	–	–	–	Post-emergence action at 1280 g/ha against DIGSA in % [9]: 90%
CCOC(=O)COc1nn(-c2cnccn2)c(-c2cncc(F)c2)c1Br [Example I-90]	–	–	–	–	–	100	100	90	80	90	90	90	80	90	90	100	100	100	Post-emergence action against ALOMY in % ([10]; Dosage 80 g/ha): 80%; Post-emergence action against SETVI in % ([14]; Dosage 80 g/ha): 80%; Post-emergence action against ABUTH in % ([15]; dosage 80 g/ha): 90%; Post-emergence action against POLCO in % ([17]; dosage 80 g/ha): 80%; Pre-emergence action against ALOMY in % [19]: 90%; Pre-emergence action against AVEFA in % [20]: 100%; Pre-emergence action against SETVI in % [23]: 100%; Pre-emergence action against AMARE in % [24]: 100%; Pre-emergence action against POLCO in % [26]: 100%; Pre-emergence action against VERPE in % [27]: 100%
CCOC(=O)COc1nn(-c2cnccn2)c(-c2cncc(F)c2)c1F [Example I-94]	–	–	–	–	–	80	80	90	90	90	90	80	80	90	90	100	90	90	Post-emergence action against MATIN in % [28]: 80%; Post-emergence action against PHBPU in % [29]: 100%
